In ChEMBL document CHEMBL1142341, “Vinyl ester-based cyclic peptide proteasome inhibitors” (Bioorg Med Chem Lett, 2008):
Residues, ends and D or L forms follow the SMILES beside them. *: point of attachment. X1 = CCOC(=O)/C=C/[C@H](CC(C)C)N*

Assay: Half life in human plasma
Assay type: ADME, cell-free

Row | SMILES | half-life
1 | CCOC(=O)/C=C/[C@H](CC(C)C)NC(=O)C[C@@H]1NC(=O)[C@H](CC(C)C)NC(=O)[C@H](CC(C)C)NC(=O)[C@H](Cc2ccccc2)NC1=O (cyclo(D(X1)FLL)) | > 6 h
2 | CCOC(=O)/C=C/[C@H](CC(C)C)NC(=O)C[C@@H]1NC(=O)[C@H](CO)NC(=O)[C@H](C(C)C)NC(=O)[C@H](Cc2ccccc2)NC1=O (cyclo(D(X1)FVS)) | > 6 h
3 | CCOC(=O)/C=C/[C@H](CC(C)C)NC(=O)CC[C@@H]1NC(=O)[C@H](CC(C)C)NC(=O)[C@H](CC(C)C)NC(=O)[C@H](Cc2ccccc2)NC1=O (cyclo(E(X1)FLL)) | > 6 h
